Data published in patent US8097656B2, “Nitrogenated trans-stilbene analogs, method for the obtention and medical applications thereof” (Dominion Pharmakine S.L, priority 2005, dated 2012).
“Also recorded” adds a separate entry of the source.

How the values were obtained:
MB16 cells [1] = test: In vitro proliferation of MB16 cells treated with recombinant IL-18; assay type: cell-based, murine; conditions: 2.5 μM pretreatment; 10 ng/ml IL-18; 48 h
Method: In vitro Melanoma cell proliferation test. The MB16 or MA375 cells are seeded (2500 cells/well/200 μl) in DMEM medium (Dulbecco's modified Eagle's medium) with 10% fetal bovine serum (FBS). Once adhered, they were washed to remove the FBS and fresh medium was added in the presence or absence of 2.5 μM of the compounds to be tested. In the experiments with MA375, the compound azaresveratrol (see Table 4) was used, and in the experiments with MB16 cells, the compounds azaresveratrol, JE1:2, JE2:1 or JE2:2 (see FIG. 3) were used. Thirty (30) minutes later, 10 ng/ml of IL-18 or HSC-conditioned media (murines in the case of B16 and human ones in the case of A375) were added to some wells, and the plates were incubated for 48 hours at 37° C. with 5% CO2 Upon completion of the incubation period, the cells were fixed with […] for 1 hours, were washed and were allowed to dry in the incubator at 50° C. for 30 minutes. In following, 100 μl/well of sulforhodamine 101 (0.4% p/v) was added and they were incubated at room temperature in the dark for 30 minutes. After washing, 200 μl/well of Tris base 10 mM pH 10.5 was added and the fluorescence was measured by means of a 530 nm, 620 nm emission excitation filter plate fluorescence reader. The number of cells was calculated by extrapolating said fluorescence data on a standard straight line previously obtained based on the fluorescence emitted in an increasing number of cells.

MB16 cells [2] = test: MB16 cell adhesion to immobilized VCAM-1 substrates (H2O2-treated); assay type: cell-based, murine; conditions: 2.5 μM preincubation; 10 μM H2O2
Method: MB16 and MA375 cell adhesion to immobilized VCAM-1 substrates. The MB16 and MA375 cell adhesion tests were conducted on immobilized VCAM-1 substrates (2 μg/ml of recombinant human VCAM-1, R&D Systems, Minneapolis, Minn.) on 96-well plates. To avoid non-specific attachment to the plastic, 0.5% BSA dissolved in PBS was added to the wells for 2 hours at ambient temperature prior to conducting the adhesion test. The melanoma cells were preincubated with 2.5 μM of the compounds to be tested (azaresveratrol, see Table 2; JE1:2, JE2:1 and JE2:2 see FIG. 2; JEM2:2-01 and JEM2:1-02 see FIG. 7; YEF02, YEF03, YEF07, YEF05B, YEF07B and YEF05H. see FIG. 9) for 30 minutes, to which 10 μM of hydrogen peroxide or 10 ng/ml of IL-18 were added, respectively for a further 24 hours. Afterward, the cells were washed and marked with the BCECF-AM fluorescent probe (carboxyfluorescein, 2′,7′-bis-(2-carboxy-ethyl)-5-(6)carboxyfluorescein aminoxymethyl ester). Thirty minutes later, a washing process was performed to remove the excess fluorochromium, the number of viable cells being calculated by means of the trypan blue exclusion test and (5×10^4 cells/well) being added to the 96-well plate. The co-culture plates were incubator-incubated at 37° C. for 1 hours. The percentage of cellular adhesion was calculated by measuring the fluorescence emitted by the adhered cells (obtained after washing the plate) with regard to the fluorescence emitted by the total number of cells added. The results in the figures are given in values related to the adhesion percentages of the untreated melanoma cells.

HSE cells [3] = test: Hydrogen peroxide production from primary cultured HSE cells (DCFH-DA probe); assay type: cell-based, mouse; conditions: 2.5 μM
Text: (§1) Isolation of primary murine cultures of hepatic sinusoidal endothelial (HSE) cells. The hepatic sinusoidal cells were isolated from C57BL/6J mice (males, aged 6-8 weeks) supplied by IFFA Credo (L'Arbreole, France), followed by a purification and identification of the HSE cells following the protocol described by Vidal-Vanaclocha et al. (1993) [Vidal-Vanaclocha, F., Rocha, M., Asumendi, A. & Barbera-Guillem, E. Isolation and enrichment of two sublobular compartment-specific endothelial cell subpopulations from liver sinusoids. Hepatology, 1993, 18, 328-339]. Stable primary cultures of HSE cells were obtained after seeding the cells on a type I collagen substrate (Sigma Chemicals Co, St Louis, Mo.), and the cultures were maintained in DMEM-HCO^3−, penicillin (100 U/ml), streptomycin (100 μg/ml), supplemented with 10% fetal bovine serum at 37° C. with 5% CO2 in atmosphere at 98% humidity.
(§2) Determination of hydrogen peroxide production from HSE and MB16 cells. Primary cultures of HSE cells were treated with 10 μg/ml of the DCFH-DA fluorescent probe for 30 minutes at 37° C. and were washed to eliminate the excess fluorochromium. Afterward, fresh culture medium was added thereto in the presence or absence of 2.5 μM of the compounds JE1:2, JE2:1 or JE2:2 and the production of H202 over the course of time was determined (see FIG. 5). The hydrogen peroxide produced by the cells oxidizes the probe, converting it into a fluorescent molecule. Thus, the cell fluorescence produced by the accumulation of DCF made it possible to detect the intracellular production of hydrogen peroxide. In each cell well, it was possible to determine the relative fluorescence value (arbitrary units of fluorescence brightness) in relation to the quantity of hydrogen peroxide produced at different incubation times. In the experiments with MB16 cells, once the cells had been marked with the DCFH-DA probe, they were incubated for 300 minutes with 2.5 μM of the azaresveratrol or JE2:2 compounds, 10 ng/ml of IL-18 (FIG. 4) then having been added.

HSE cells [4] = test: MB16 cell adhesion to HSE cells treated with MC-MB16; assay type: cell-based, mouse; conditions: 2.5 μM prior to MC-MB16
Text: as §1
MB16 cell adhesion to the monolayer of HSE cells in culture. The endothelial cells were isolated 24 hours prior to the adhesion test and were seeded on 24-well plate, maintaining them a minimum of 4 hours in serum-free medium before incubating them with DMEM in the presence or not of MC-MB16 for 8 hours. The synthesized compounds (JE2:2 see FIG. 6; JEM2:2-01 and JEM2:1-02 see FIG. 8A; YEF02, YEF03, YEF07, YEF05B, YEF07B and YEF05H see FIG. 10) were added to a 2.5 μM concentration prior to the MC-MB16. On the other hand, the MB16 cells were marked with 40 μg/ml from the fluorescent probe BCECF-AM (carboxyfluorescein, 2′,7′-bis-(2-carboxy-ethyl)-5-(6)carboxyfluorescein aminoxymethyl ester) supplied by Molecular Probes Inc. (Oregon, USA). Afterward, a washing process was performed with DMEM-HCO3−—to remove the excess fluorochromium, the number of viable cells being calculated by means of the trypan blue exclusion test and resuspended to a concentration of 2×10^5 cells/ml. Lastly, 1 ml of the MB16 cell suspension was added to each well on the primary HSE cell culture plate. The co-culture plates were incubator-incubated at 37° C. for 8 minutes. The percentage of cellular adhesion was calculated by means of the a fluorescence measurement system described by Vidal-Vanaclocha et al. (1994) [Vidal-Vanaclocha, F., Amézaga, C., Asumendi, A., Kaplanski, G. & Dinarello, C. A. Interleukin-1 receptor blockade reduces the number and size of murine B16 melanoma hepatic metastases. Cancer Research, 1994, 54, 2667-2672]. In the experiments with IL-18, the MB16 cells were incubated with 10 ng/ml of IL-18 for 4 hours prior to being marked with BCECF-AM and were adhered to the HSE cell plate. The results in the figures are given as values related to the adhesion percentages of the untreated HSE cells.

TNF-alpha = test: ELISA of TNF-alpha in supernatant of MC-MB16-treated HSE cells; assay type: cell-based, mouse; conditions: 2.5 μM for 30 minutes before MC-MB16; 8 hours
Method: ELISA determination of the TNF-alpha concentration in the supernatant from MC-MB16-treated HSE cells. Primary cultured HSE cells were incubated in the presence or absence of 2.5 μM of the synthesized compounds (JEM2:2-01 and JEM2:1-02 see FIG. 8B) for 30 minutes, after which MB16-conditioned media were added. Eight (8) hours later, the supernatant from cultured endothelial cells were collected, filtered through 0.22 μm membranes and the concentration of TNF-alpha was then assayed using the ELISA test (R&D Systems).

PGE2 = test: EIA of PGE2 in supernatant of VEGF-treated HSE cells (evidence of cyclooxygenase-2 activity); assay type: cell-based, mouse; conditions: 1, 2.5 and 10 μM; 10 ng/ml VEGF for 4 hours
Method: PGE2 determination in HSE cell supernatants (see FIG. 11). Primary cultured HSE cells were incubated in the presence or absence of increasing concentrations (1, 2.5 and 10 μM) of the compounds JE2:2, YEF07 and YEF05B for 30 minutes. In following, 10 ng/ml of recombinant murine VEGF or the same volume of saline solution was added, 4 hours after which supernatants were collected and the PGE2 concentration determined by enzymatic immunoassay (EIA) supplied by Amersham Biosciences (Uppsala, Sweden).

MB16 cells [5] = test: Hydrogen peroxide production from MB16 cells (DCFH-DA probe); assay type: cell-based, murine
Method: as §2

MB16 cells [6] = test: MB16 hepatic metastasis test after intrasplenic injection; assay type: in vivo, C57BL/6J mice; conditions: JE2:2 intraperitoneal 2.5 mg/kg, 1 hour prior and days 2, 3, 4, 8, 9, 10, 11; day 12; vs PBS; P<0.01
[7] = Water solubility (statement); assay type: physicochemical

With COC(=O)c1[nH]c(-c2ccc(O)cc2)cc1-c1cc(O)cc(O)c1 [JE1:2, 3-(3,5-Dihydroxyphenyl)-5-(4-hydroxyphenyl)-1H-pyrrole-2-methyl carboxylate] the “Increase in the number of MB16 cells by IL-18 (proliferation, in words)” value (“Increase in the number of MB16 cells” below) (MB16 cells [1]) was “reduced said increase”, the “Increase in H2O2-treated MB16 cell adhesion to immobilized VCAM-1 (in words)” value (from here on “Increase … to immobilized VCAM-1 (in words)”) (MB16 cells [2]) was “significantly (P<0.01) inhibits” and the “Endothelial (HSE) production of H2O2 (in words)” value (“Endothelial (HSE) production” below) (HSE cells [3]) was “inhibitory effect”.

For COC(=O)c1[nH]c(-c2cc(O)cc(O)c2)cc1-c1ccc(O)cc1 [JE2:1, 5-(3,5-Dihydroxyphenyl)-3-(4-hydroxyphenyl)-1H-pyrrole-2-methyl carboxylate], the “Increase in the number of MB16 cells” value (MB16 cells [1]) was “reduced said increase”, the “Increase … to immobilized VCAM-1 (in words)” value (MB16 cells [2]) was “significantly (P<0.01) inhibits” and the “Endothelial (HSE) production” value (HSE cells [3]) was “inhibitory effect”.

With COC(=O)c1[nH]c(-c2cc(OC)cc(OC)c2)cc1-c1cc(OC)cc(OC)c1 [JEM2:2-01, 3,5-bis(3,5-Dimethoxyphenyl)-1H-pyrrole-2-methyl carboxylate] the “Increase … to immobilized VCAM-1 (in words)” value (MB16 cells [2]) was “completely abrogated”, the “Increase in adhesion of MB16 cells to HSE activated by MC-MB16 / proadhesive response of HSE (in words)” value (HSE cells [4]) was “significantly (P<0.01) reduced; also recorded: greater inhibition” and the “Endothelial production of TNF-alpha induced by MC-MB16 (in words)” value (TNF-alpha) was “inhibits”.

With COc1cc(OC)cc(-c2cc3c(OC)cc(OC)cc3[nH]2)c1 [YEF07, 4,6-Dimethoxy-2-(3,5-dimethoxyphenyl)-1H-indole] the “Increase … to immobilized VCAM-1 (in words)” value (MB16 cells [2]) was “significantly (P<0.01) inhibited”, the “Increase in adhesion of MB16 cells to HSE activated by MC-MB16 / proadhesive response of HSE (in words)” value (HSE cells [4]) was “significantly (P<0.01) reduced” and the “Increase in endothelial secretion of PGE2 after VEGF (in words)” value (from here on “Increase in endothelial secretion”) (PGE2) was “significantly inhibited”.

With COc1ccc(OC)c(-c2cc3c(OC)cc(OC)cc3n2C(=O)OC(C)(C)C)c1 [YEF07B, 4,6-Dimethoxy-2-(2,5-dimethoxyphenyl)-1H-indole-1-tert-butyl carboxylate] the “Increase … to immobilized VCAM-1 (in words)” value (MB16 cells [2]) was “significantly (P<0.01) inhibited” and the “Increase in adhesion of MB16 cells to HSE activated by MC-MB16 / proadhesive response of HSE (in words)” value (HSE cells [4]) was “significantly (P<0.01) reduced”.

For Oc1ccc(O)c(-c2cc3c(O)cc(O)cc3[nH]2)c1 [YEF05H, 2-(2,5-Dihydroxyphenyl)-1H-indole-4,6-diol], the “Increase … to immobilized VCAM-1 (in words)” value (MB16 cells [2]) was “significantly (P<0.01) inhibited” and the “Increase in adhesion of MB16 cells to HSE activated by MC-MB16 / proadhesive response of HSE (in words)” value (HSE cells [4]) was “significantly (P<0.01) reduced”.

In the case of COc1cc(OC)cc(-c2cc3c(OC)cc(OC)cc3n2C(=O)OC(C)(C)C)c1 [YEF05B, 4,6-Dimethoxy-2-(3,5-dimethoxyphenyl)-1H-indole-1-tert-butyl carboxylate], the “Increase … to immobilized VCAM-1 (in words)” value (MB16 cells [2]) is reported as “significantly (P<0.01) inhibited”, the “Increase in adhesion of MB16 cells to HSE activated by MC-MB16 / proadhesive response of HSE (in words)” value (HSE cells [4]) is reported as “significantly (P<0.01) reduced” and the “Increase in endothelial secretion” value (PGE2) is reported as “significantly inhibited”.

For COC(=O)c1[nH]c(-c2cc(O)cc(O)c2)cc1-c1cc(O)cc(O)c1 [JE2:2, 3,5-bis(3,5-Dihydroxyphenyl)-1H-pyrrole-2-methyl carboxylate], the “Increase in the number of MB16 cells” value (MB16 cells [1]) was “reduced said increase; also recorded: most highly effective”, the “Increase … to immobilized VCAM-1 (in words)” value (MB16 cells [2]) was “significantly (P<0.01) inhibits; also recorded: greatest inhibitory effect” and the “Increase in adhesion of MB16 cells to HSE activated by MC-MB16 / proadhesive response of HSE (in words)” value (HSE cells [4]) was “significantly (P<0.01) reduced”. For the same compound, the “Increase of H2O2 production of MB16 cells in response to IL-18 (in words)” value (MB16 cells [5]; 2.5 μM prior to IL-18) was “completely abrogated”, the “H2O2 production of MB16 cells in basal conditions (in words)” value (MB16 cells [5]; 2.5 μM, no IL-18) was “inhibited” and the “Increase in endothelial secretion” value (PGE2) was “significantly inhibited; also recorded: dose-response”. For the same compound, the “Endothelial (HSE) production” value (HSE cells [3]) was “inhibited”, the “Reduction of the mean density of hepatic metastasis” value (MB16 cells [6]) was 87% and the “Reduction of the volume occupied by metastatic tissue” value (MB16 cells [6]) was 90%. The “Water solubility (in words)” value [7] was “highly water-soluble”.
